6 compounds from ChEMBL document CHEMBL1139645, “Action of a novel pyrrolo[1,2-c][1.3]benzodiazepine on the viability of Jurkat and neuronal/glial cells” (2005) can be followed below.

Experiment [1] can be described thus: Effect of compound on cell viability in non-transformed neuronal/glial cells measured as percent reduction of MTT at 570 nm O.D. and exposure to 100 uM NMDA; Control value 0.56 %. Type of experiment: functional, Rattus norvegicus.
The nature of experiment [2]: Effect of compound on cell viability in non-transformed neuronal/glial cells measured as percent reduction of MTT at […] O.D.; Control value 0.56 %. Type of experiment: functional, Rattus norvegicus.
Experiment [3] deals with Jurkat. Briefly: Effect of compound on cell viability in human leukemic Jurkat cells measured as percent reduction of MTT at 570 nm O.D.; Control value 0.47 %. Type of experiment: functional.
Experiment [4] can be described thus: Effect of compound on cell viability in non-transformed neuronal/glial cells measured as percent reduction of MTT at 570 nm O.D. at 100 uM; Control value 0.56 %. Type of experiment: functional, Rattus norvegicus.

Turning to `Nc1ccccc1C(=O)c1ccc[nH]1`, the MTT reduction in experiment [1] is 0.3 O.D; in experiment [2], 0.65 O.D; in experiment [3] it was 0.39 O.D.
Regarding `SC1=Nc2ccccc2Cc2cccn21`, the MTT reduction was 0.17 O.D in experiment [1], 0.58 O.D in experiment [2] and 0.22 O.D in experiment [3].
The corresponding values for `O=c1c2ccccc2nc(S)n2cccc12` are 0.28 O.D, 0.62 O.D and 0.41 O.D.
With `Oc1c2nccc-2c(S)nc2ccccc12`, the MTT reduction in experiment [1] worked out at 0.25 O.D; in experiment [2], 0.55 O.D; in experiment [3], 0.45 O.D.
With `Nc1ccccc1Cc1ccc[nH]1`, the MTT reduction in experiment [1] was 0.22 O.D; in experiment [2] it was 0.38 O.D; in experiment [3], 0.34 O.D.
Turning to `CN[C@H](CC(=O)O)C(=O)O` [N-METHYL-D-ASPARTIC ACID (NMDA)], in experiment [4], the MTT reduction worked out at 0.29 O.D.
